Common to all, as to assay type: in vivo
Test [1] concerns IL-10. The test can be described thus: Cytokine ELISA in CIA mice, day 60: IL-10. The conditions noted are these: serum pooled from five CIA mice. From the text:
With continued reference to FIG. 1, in some embodiments, administration 116 may be done to an animal. As a non-limiting example, the animal may include a mouse, a fish, a rabbit, human, and the like. As a non-limiting example, administration 116 of composition of the engineered virus-based nanoparticle for a treatment of an autoimmune condition may be done to dilute, brown, and non-agouti (DBA) mice based on their susceptibility to collagen-induced arthritis (CIA). Female DBA/1 mice 6 to 8 weeks of age may be maintained under specific pathogen-free conditions. CIA may be induced by the intradermal tail base injection of 100 μg of chicken type II collagen (Sigma-Aldrich) as previously described. Five mice per group may be immunized on days 0 and 21 to induce arthritis. The onset of disease may be confirmed on the day that swelling or erythema may be observed in any paw, typically 4 to 10 days after the second immunization. Each experimental group may be treated seven times, 5 days apart, starting from day 28 after the first immunization, with intraperitoneal injections of saline (200 μI per mouse), TBSV·pLIp1, TBSV·pFADK2, pLIp1+IFA, and pFADK2+IFA (all 50 μg per mouse in 200 μl) or dexamethasone (5 μg per mouse in 200 μl). […] CIA may be assessed using a macroscopic score system based on the visual identification of arthritic limbs.
(ELISA stands for enzyme-linked immunosorbent assay.)

Test [2] deals with MCP-1. Nature of the test: Pro-inflammatory cytokines in sera of CIA Collagen mice (ELISA, day 58): MCP-1. As to conditions: Dexamethasone oral 1 mg/kg, 20 times between day 28 and 57. Here is the method: (§1) Critical administration 124 disclosed herein is further described below. Q5D represents administration 5 days a part. TBSV·pLIp1 and wt TBSV shown in Table 1 may include liquid form that are not sterile and stored in −20° C. TBSV·pLIp1 may be given at the dose of 50 μG/100 μL Male DBA/1J mice (8 weeks; Envigo, Italy) may be used for these studies. Mice may be housed in individual cages (two for each group) and maintained under a 12:12 light-dark cycle at 21° C.±1° C. and 50%±5% humidity. The animals may be acclimated to their environment for 1 week and had ad libitum access to tap water and standard rodent diet. All animal experiments may be complied with regulations in Italy (D.M. 116192), Europe (O.J of E.C. L 358/112/18/1986), and the United States (Animal Welfare Assurance Number A5594-01, Department of Health and Human Services, USA). […] Arthritis was assessed by using qualitative severity score system and hind paw volume (mL) measured by a plethysmometer on day 20, 22, 24, 26, 28, 30, 32, 34, 36, 38, 40, 42, 44, 46 48, 50, 52, 54, 56 and 58. Body weight was recorded on day 0, 6, 13, 16, 18, 20, 22, 24, 26, 28, 30, 32, 34, 36, 38, 40, 42, 44, 46, 50, 52, 54, 56 and 58. […]

Test [3] deals with IL-1β. Nature of the test: Pro-inflammatory cytokines in sera of CIA Collagen mice (ELISA, day 58): IL-1β. As to conditions: Dexamethasone oral 1 mg/kg, 20 times between day 28 and 57. Here is the method: as §1
Test [4] concerns IL-6. Nature of the test: Pro-inflammatory cytokines in sera of CIA Collagen mice (ELISA, day 58): IL-6. The conditions noted are these: Dexamethasone oral 1 mg/kg, 20 times between day 28 and 57. Here is the method: as §1

As for `C[C@@H]1C[C@H]2[C@@H]3CCC4=CC(=O)C=C[C@]4(C)[C@@]3(F)[C@@H](O)C[C@]2(C)[C@@]1(O)C(=O)CO` [Dexamethasone, dexamethasone], the IL-10 in test [1] worked out at 71.6 pg/mL. For the same compound, the “MCP-1, % of reduction vs CIA Collagen” value in test [2] amounted to 30.57%. Further, the “IL-1β, % of reduction vs CIA Collagen” value in test [3] is on record as 22.74%. The “IL-6, % of reduction vs CIA Collagen” value in test [4] was found to be 40.13%.

The values are drawn from US12527849B2, “Apparatus for determining administration form of a composition of an engineered virus-based nanoparticle for a treatment of an autoimmune condition” (Diamante Srl, priority 2021, dated 2026).
